We go through 15 molecules from ChEMBL document CHEMBL1124325, “Interactions of thiol-containing androgens with human placental aromatase” (J Med Chem, 1989).

In series [1] the target is T1, Aromatase (Homo sapiens, UniProt P11511).
T1 sequence (P11511 whole entry): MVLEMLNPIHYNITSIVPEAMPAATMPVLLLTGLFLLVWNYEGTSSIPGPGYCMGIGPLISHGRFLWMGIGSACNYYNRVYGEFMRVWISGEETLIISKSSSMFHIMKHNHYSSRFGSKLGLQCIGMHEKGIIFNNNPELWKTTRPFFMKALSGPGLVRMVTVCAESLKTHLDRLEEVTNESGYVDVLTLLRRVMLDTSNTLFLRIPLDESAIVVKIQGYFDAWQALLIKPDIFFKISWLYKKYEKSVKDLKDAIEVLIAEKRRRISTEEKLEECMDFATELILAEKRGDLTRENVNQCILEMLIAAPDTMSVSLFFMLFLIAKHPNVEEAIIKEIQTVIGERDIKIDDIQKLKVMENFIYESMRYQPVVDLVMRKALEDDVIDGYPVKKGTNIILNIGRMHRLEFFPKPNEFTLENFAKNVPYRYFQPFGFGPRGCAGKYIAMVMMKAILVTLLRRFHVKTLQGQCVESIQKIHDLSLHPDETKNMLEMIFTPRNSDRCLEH
Briefly: Maximum absorbance for formation of reversible-enzyme-ligand complexes with human placental aromatase (PL1).

Series [2] has as its target T1, Aromatase. Description: Binding affinity constant for formation of reversible enzyme-ligand complex with human placental aromatase (PL1). The conditions noted are these: read-out: Ks.
Series [3] has as its target T1, Aromatase. Briefly: Dithiothreitol ([…]) reactivation of human placental aromatase following 1.0 uM inactivation for 5 minutes. Particulars: read-out: Activity remaning.
Series [4] addresses T1, Aromatase. Description: Binding affinity(KI) for formation of reversible enzyme-ligand complex with human placental aromatase (PL2).
Series [5] addresses T1, Aromatase. Briefly: Catalytic constant (Kcat) for reversible enzyme-ligand complex formation with human placental aromatase (PL2).
The target in series [6] is T1, Aromatase. Briefly: Dithiothreitol ([…]) reactivation of human placental aromatase following 1.0 uM inactivation for 10 minutes. Particulars: read-out: Activity remaning.
The target of series [7] is T1, Aromatase. Description: Binding affinity for formation of reversible enzyme-ligand complexes with human placental aromatase (PL2).

For the molecule `C[C@]12CCC(=O)C=C1CC[C@@H]1[C@@H]2CC[C@]2(C)C(=O)CC[C@@H]12` [ANDROSTENEDIONE], the Activity in series [1] was 0.177 Amax nM-1. Moreover, in series [2], the Kd was 105 nM.

For `C[C@]12CCC3C(CCC4=CC(=O)CC[C@@]43S)C1CCC2=O.OC(CS)C(O)CS` (stereo not given in full), the activity at 1 µM in series [3] came to 48%.

`C#CC[C@]12CCC(=O)C=C1CC[C@@H]1[C@@H]2CC[C@]2(C)C(=O)CC[C@@H]12` [PLOMESTANE] came in with a Ki in series [4] of 6.2 nM. The molecule further returned a k cat in series [5] of 0.0007. For the same molecule, the Activity in series [1] was 0.191 Amax nM-1. Also, in series [6], the activity at 1 µM is 65%. Further, the Kd in series [2] came to 213 nM.

Take `C[C@]12CCC3C(CCC4=CC(=O)CC[C@@]43CS)C1CCC2=O` (stereo not given in full): the Ki in series [7] was 47 nM. The k cat in series [5] came out at 0.0025. In series [1], the Activity is reported as 0.179 Amax nM-1. Further, in series [3], the activity at 1 µM was determined as 60%.

As for `C#CC[C@]12CCC(=O)C=C1CCC1C2CC[C@]2(C)C(=O)CCC12.OC(CS)C(O)CS` (stereo not given in full), the activity at 1 µM in series [6] came to 63%.

In turn, `C[C@]12CCC3C(CCC4=CC(=O)CC[C@@]43S)C1CCC2=O` (stereo not given in full) displayed a Ki in series [4] of 28 nM. Moreover, in series [5], the k cat is 0.0043. Also, the Activity in series [1] is recorded as 0.187 Amax nM-1. For the same molecule, in series [3], the activity at 1 µM is 50%. The Kd in series [2] worked out at 144 nM.

In turn, `C[C@]12C[C@@H](S)C(=O)C=C1CCC1C2CC[C@]2(C)C(=O)CCC12` (stereo not given in full) came in with a Ki in series [4] of 3100 nM. In addition, in series [5], the k cat was 0.002. Besides, in series [1], the Activity is given as 0.169 Amax nM-1. For the same molecule, the activity at 1 µM in series [6] was 75%. Besides, in series [2], the Kd amounted to 602 nM.

Consider `OC(CS)C(O)CS` (stereo not drawn) [DL-DITHIOTHREITOL], for which the activity at 1 µM in series [6] turned out to be 84%; in series [3], 97%.

In series [4], `C[C@]12CCC(=O)C(O)=C1CC[C@@H]1[C@@H]2CC[C@]2(C)C(=O)CC[C@@H]12` [FORMESTANE] yielded a Ki of 542 nM. Besides, the k cat in series [5] is 0.008 *10e-3. The Activity in series [1] is 0.162 Amax nM-1. The activity at 1 µM in series [3] stood at 43%. The Kd in series [2] came out at 324 nM.

`CC12CCC3C(CC=C4CC(=O)CCC43CO)C1CCC2=O` (stereo not given): the Activity in series [1] was 0.125 Amax nM-1. Further, the Kd in series [2] worked out at 368 nM.

For the molecule `C[C@]12CCC(=O)C(O)=C1CCC1C2CC[C@]2(C)C(=O)CCC12.OC(CS)C(O)CS` (stereo not given in full), in series [3], the activity at 1 µM amounted to 41%.

As to `C[C@]12C[C@@H](S)C(=O)C=C1CCC1C2CC[C@]2(C)C(=O)CCC12.OC(CS)C(O)CS` (stereo not given in full), in series [6], the activity at 1 µM worked out at 74%.

`C[C@]12CCC3C(CCC4=CC(=O)CC[C@@]43S)C1CC[C@@H]2O` (stereo not given in full): the Ki in series [4] turned out to be 100 nM. The molecule also gave a k cat in series [5] of 0.004. Also, the Activity in series [1] is 0.167 Amax nM-1. In addition, the Kd in series [2] came to 785 nM.

As for `C[C@]12CC[C@H]3[C@@H](CCC4=CC(=O)CC[C@@]43C)[C@@H]1CC[C@@H]2O` [TESTOSTERONE], in series [1], the Activity is 0.166 Amax nM-1.

For the molecule `C[C@]12CCC3C(CCC4=CC(=O)CC[C@@]43CS)C1CCC2=O.OC(CS)C(O)CS` (stereo not given in full), the activity at 1 µM in series [3] was 59%.

As usually defined, the Ki is a measure of affinity in units of concentration, obtained from inhibition or displacement. Read a high Ki as lower affinity.
